The results in this text go back to patent US5464617A, “β-lactam compounds” (Hoffmann-La Roche Inc., priority 1994, dated 1995).

The test system of experiment [1] is Citrobacter freundii 1982. The experiment can be described thus: MIC in vitro of a 1:4 combination of ceftriaxone with a compound of formula I (Test D). The format is cell-based. To be noted: for MIC C. freundii 1982 (D): test D; for MIC C. freundii 1982: Table 2. The method, then:
The minimum inhibitory concentration in vitro ([…]) of a 1:4 combination of ceftriaxone with a compound of formula I against Citrobacter freundii 1982 was measured and compiled in Table 2 hereinafter.

In another experiment the test system is E. coli 1346. The experiment can be described thus: Antibacterial activity of the products per se, serial dilution method in liquid medium (Test E). The class given is cell-based. Particulars: product per se; for MIC E. coli 1346 (E): test E; for MIC E. coli 1346: Table 3, liquid medium. From the text:
The antibacterial activity of the products per se is illustrated on the basis of Table 3 hereinafter, the minimum inhibitory concentration […] in vitro against E. coli 1346 being determined using the serial dilution method in liquid medium: […]

Setting [2] is: Table 4, 1:4 combination of ceftriaxone with the compound.
Setting [3] is: 1:4 combination of ceftriaxone with the compound.

Converted amounts (≈) assume the structure as drawn. Structures can show the parent of a compound that is named as a salt.

`CC(=O)N1C[C@H]2OC(CSc3nnnn3CC(N)=O)=C(C(=O)O)N3C(=O)[C@@H]1[C@@H]23` [32(e), (1aS,3aR,6bS)-2-Acetyl-5-(1-carbamoylmethyl-1H-tetrazol-5-ylsulphanylmethyl)-1-oxo-1,1a,2,3,3a,6b-hexahydro-4-oxa-2,6a-diazacyclobut[cd]indene-6-carboxylic acid sodium salt]: the “MIC C. freundii 1982 (D)” value in experiment [1] (setting [2]) turned out to be 2 µg/mL. In addition, the “MIC E. coli 1346 (E)” value in the experiment on E. coli 1346 (Table 4) was found to be 4 µg/mL.
For the molecule `Cn1nc(O)c(=O)nc1SCC1=C(C(=O)O)N2C(=O)[C@@H]3[C@H]2[C@H](C1)CN3C(=O)Nc1ccc(O)cc1` [Example 54, (1aS,3aR,6bR)-5-(2,5-Dihydro-6-hydroxy-2-methyl-5-oxo-1,2,4-triazin-3-ylsulphanylmethyl)-2-(4-hydroxy-phenylcarbamoyl)-1-oxo-1a,2,3,3a,4,6b-hexahydro-1H-2,6a-diazacydobut[cd]indene-6-carboxylic acid sodium salt (1:2)], the “MIC C. freundii 1982 (D)” value in experiment [1] (setting [2]) turned out to be 0.25 µg/mL. The “MIC E. coli 1346 (E)” value against E. coli 1346 (Table 4) is 32 µg/mL.
In the case of `Cc1nnc(SCC2=C(C(=O)O)N3C(=O)[C@H]4NC[C@@H](O2)[C@H]43)s1` [Example 29(a), (1aS,3aR,6bS)-5-(5-Methyl-1,3,4-thiadiazol-2-ylsulphanylmethyl)-1-oxo-1,1a,2,3,3a,6b-hexahydro-4-oxa-2,6a-diazacyclobut[cd]indene-6-carboxylic acid sodium salt], the “MIC C. freundii 1982 (D)” value in experiment [1] (setting [2]) turned out to be 1 µg/mL. In addition, the “MIC E. coli 1346 (E)” value against E. coli 1346 (Table 4) worked out at 1 µg/mL.
`O=C(NCc1ccc(O)cc1)OCC1=C(C(=O)O)N2C(=O)[C@H]3NC[C@@H](C1)[C@H]32` [Example 101, (1aS,3aR,6bR)-5-[(4-Hydroxy-benzyl)-carbamoyloxymethyl]-1-oxo-1a,2,3,3a,4,6b-hexahydro-1H-2,6a-diazacyclobut[cd]indene-6-carboxylic acid trifluoroacetate]: the “MIC C. freundii 1982 (D)” value in experiment [1] (setting [2]) came out at 1 µg/mL. For the same molecule, the “MIC E. coli 1346 (E)” value in the experiment on E. coli 1346 (Table 4) came to 2 µg/mL.
Turning to `CC(=O)N1C[C@H]2CC(CSc3nnnn3CC(N)=O)=C(C(=O)O)N3C(=O)[C@@H]1[C@@H]23` [70(a), (1aS,3aR,6bR)-2-Acetyl-5-(1-carbamoylmethyl-1H-tetrazol-5-ylsulphanylmethyl)-1-oxo-1a,2,3,3a,4,6b-hexahydro-1H-2,6a-diazacyclobut[cd]indene-6-carboxylic acid sodium salt], the “MIC C. freundii 1982 (D)” value in experiment [1] (Table 5, particularly preferred products, 1:4 combination with ceftriaxone) was found to be 0.5 µg/mL. Besides, in the experiment on E. coli 1346 (Table 5, particularly preferred products), the “MIC E. coli 1346 (E)” value was determined as 1 µg/mL.
As to `Cc1nnc(SCC2=C(C(=O)O)N3C(=O)[C@@H]4[C@H]3[C@H](C2)CN4C(=O)C(F)(F)F)s1` [65(b), (1aS,3aR,6bR)-5-(S-Methyl-1,3,4-thiadiazol-2-ylsulphanylmethyl)-1-oxo-2-trifluoroacetyl-1a,2,3,3a,4,6b-hexahydro-1H-2,6a-diazacyclobut[cd]indene-6-carboxylic acid sodium salt], in experiment [1] (setting [2]), the “MIC C. freundii 1982 (D)” value was found to be 1 µg/mL. Besides, in the experiment on E. coli 1346 (Table 4), the “MIC E. coli 1346 (E)” value is 2 µg/mL.
In the case of `NC(=O)Cn1nnnc1SCC1=C(C(=O)O)N2C(=O)[C@@H]3[C@H]2[C@@H](CN3C(=O)C(F)(F)F)O1` [Example 39, (1aS,3aR,6bS)-5-(1-Carbamoylmethyl-1H-tetrazol-5-ylsulphanylmethyl)-1-oxo-2-trifluoroacetyl-1,1a,2,3,3a,6b-hexahydro-4-oxa-2,6a-diazacyclobut[cd]indene-6-carboxylic acid sodium salt], the “MIC C. freundii 1982 (D)” value in experiment [1] (setting [2]) stood at 2 µg/mL. For the same molecule, the “MIC E. coli 1346 (E)” value with E. coli 1346 (Table 4) turned out to be 8 µg/mL.
With `CC(=O)N1C[C@H]2CC(CSc3nnnn3C)=C(C(=O)O)N3C(=O)[C@@H]1[C@@H]23` [Example 19(a), (1aS,3aR,6bR)-2-Acetyl-5-(1-methyl-1H-tetrazol-5-ylsulphahylmethyl)-1-oxo-1a,2,3,3a,4,6b-hexahydro-1H-2,6a-diazacyclobut[cd]indene-6-carboxylic acid sodium salt], the “MIC E. coli 1346” value against E. coli 1346 stood at 0.5 µg/mL.
For the molecule `Cn1nnnc1SC1=C(C(=O)O)N2C(=O)[C@H]3NC[C@@H](C1)[C@H]32` [Example 2(a), (1aS,3aR,6bR)-5-(1-Methyl-1H-tetrazol-5-ylsulphanyl)-1-oxo-1a,2,3,3a,4,6b-hexahydro-1H-2,6a-diazacyclobut[cd]indene-6-carboxylic acid trifluoroacetate], in the experiment with E. coli 1346, the “MIC E. coli 1346” value was 4 µg/mL.
Same read-out and setting: to `CS(=O)(=O)OC1=C(C(=O)[O-])N2C(=O)[C@@H]3[C@H]2[C@H](C1)CN3C(=O)C[n+]1cccc(C(N)=O)c1` [11(a), (1 aS,3aR,6bR)-2-(3-Carbamoyl-pyridin-1-ylioacetyl)-5-methylsulphonyloxy-1-oxo-1a,2,3,3a,4,6b-hexahydro-1H-2,6a-diazacyclobut[cd]indene-6-carboxylate] belongs 32 µg/mL (≈ 71 µM); to `Cc1nnc(SC2=C(C(=O)O)N3C(=O)[C@@H]4[C@H]3[C@H](C2)CN4C(=O)Nc2ccc(O)cc2)s1` [3(j), (1aS,3aR,6bR)-2-(4-Hydroxyphenylcarbamoyl)-5-(5-methyl-1,3,4-thiadiazol-2-ylsulphanyl)-1-oxo-1a,2,3,3a,4,6b-hexahydro-1H-2,6a-diazacyclobut[cd]indene-6-carboxylic acid sodium salt], 32 µg/mL.
Turning to `Cn1nnnc1SC1=C(C(=O)O)N2C(=O)[C@@H]3[C@H]2[C@H](C1)CN3C(=O)Nc1ccc(C(N)=O)cc1` [3(b), (1aS,3aR,6bR)-2-(4-Carbamoyl-phenylcarbamoyl)-5-(1-methyl-1H-tetrazol-5-ylsulphanyl)-1-oxo-1a,2,3,3a,4,6b-hexahydro-1H-2,6a-diazacyclobut[cd]indene-6-carboxylic acid sodium salt], the “MIC C. freundii 1982” value in experiment [1] (setting [3]) was found to be 0.25 µg/mL.
The same measure, in the same setting: under `O=C([O-])C1=C(C[n+]2ccccc2)C[C@@H]2CN(C(=O)Nc3ccc(O)cc3)[C@@H]3C(=O)N1[C@H]23` [23(a)] stands 1 µg/mL.
As for `Cn1nnnc1SCC1=C(C(=O)O)N2C(=O)[C@@H]3[C@H]2[C@H](C1)CN3S(=O)(=O)C(F)(F)F` [19(f), (1aS,3aR,6bR)-5-(1-Methyl-1H-tetrazol-5-ylsulphanylmethyl)-1-oxo-2-trifluormethylsulphonyl-1a,2,3,3a,4,6b-hexahydro-1H-2,6a-diazacyclobut[cd]indene-6-carboxylic acid sodium salt], the “MIC C. freundii 1982 (D)” value in experiment [1] (setting [2]) amounted to 4 µg/mL.
The same measure, in the same setting: to `Cn1nnnc1SCC1=C(C(=O)O)N2C(=O)[C@@H]3[C@H]2[C@H](C1)CN3C(=O)NCc1cccs1` [18(g), (1aS,3aR,6bR)-1-Oxo-5-(1-methyl-1H-tetrazol-5-yl-sulphanylmethyl)-2-thiophen-2-ylmethylcarbamoyl-1a,2,3,3a,4,6b-hexahydro-1H-2,6a-diazacyclobut[cd]indene-6-carboxylic acid sodium salt] belongs 0.5 µg/mL.
As for `CS(=O)(=O)OC1=C(C(=O)O)N2C(=O)[C@@H]3[C@H]2[C@H](C1)CN3C(=O)N[C@H]1CCNC1=O` [9(e), (1aS,3aR,6bR)-5-Methylsulphonyloxy-1-oxo-2-[(S)-2-oxo-pyrrolidin-3-ylcarbamoyl]-1a,2,3,3a,4,6b-hexahydro-1H-2,6a-diazacyclobut[cd]indene-6-carboxylicacid sodium salt], the “MIC C. freundii 1982” value in experiment [1] (setting [3]) turned out to be 0.25 µg/mL.
On the same count and under the same terms, under `NC(=O)c1ccc(NC(=O)N2C[C@H]3CC(Sc4nnc(N)s4)=C(C(=O)O)N4C(=O)[C@@H]2[C@@H]34)cc1` [3(m), (1aS,3aR,6bR)-5-(5-Amino1,3,4-thiadiazol-2-ylsulphanyl)-2-(4-carbamoyl-amino-phenylcarbamoyl)-1-oxo-1a,2,3,3a,4,6b-hexahydro-1H-2,6a-diazacyclobut]cd]indene-6-carboxylic acid sodium salt] stands 0.25 µg/mL; under `CC(=O)OCC1=C(C(=O)O)N2C(=O)[C@@H]3[C@H]2[C@H](C1)CN3C(=O)Nc1ccc(O)cc1` [Example 25, (1aS,3aR,6bR)-5-Acetoxymethyl-2-(4-hydroxy-phenylcarbamoyl)-1-oxo-1a,2,3,3a,4,6b-hexahydro-1H-2,6a-diazacyclobut[cd]indene-6-carboxylic acid sodium salt], 0.25 µg/mL.
Consider `Cn1nnnc1SCC1=C(C(=O)O)N2C(=O)[C@H]3NC[C@@H](C1)[C@H]32` [Example 15, (1aS,3aR,6bR)-5-(1-Methyl-1H-tetrazol-5-ylsulphanylmethyl)-1-oxo-1a,2,3,3a,4,6b-hexahydro-1H-2,6a-diazacyclobut[cd]indene-6-carboxylic acid trifluoroacetate], for which the “MIC E. coli 1346” value with E. coli 1346 turned out to be 2 µg/mL.
Turning to `COC(=O)CN1C[C@H]2CC(CSc3nnnn3C)=C(C(=O)O)N3C(=O)[C@@H]1[C@@H]23` [61(a), (1aS,3aR,6bR)-2-Methoxycarbonylmethyl-5-(1-methyl-1H-tetrazol-5-ylsulphanylmethyl)-1-oxo-1a,2,3,3a,4,6b-hexahydro-1H-2,6a-diazacyclobut[cd]indene-6-carboxylic acid], in experiment [1] (setting [2]), the “MIC C. freundii 1982 (D)” value was determined as 0.25 µg/mL.
As for `Cn1nnnc1SC1=C(C(=O)O)N2C(=O)[C@@H]3[C@H]2[C@H](C1)CN3C(=O)N[C@H]1CCNC1=O` [3(c), (1aS,3aR,6bR)-2-[(S)-2-Oxo-pyrrolidin-3-ylcarbamoyl]-5-(1-methyl-1H-tetrazol-5-ylsulphanyl)-1-oxo-1a,2,3,3a,4,6b-hexahydro-1H-2,6a-diazacyclobut[cd]indene-6-carboxylic acid sodium salt], in experiment [1] (setting [3]), the “MIC C. freundii 1982” value came to 0.25 µg/mL.
The same measure, in the same setting: to `NC(=O)c1ccc(NC(=O)N2C[C@H]3CC(C[n+]4ccccc4)=C(C(=O)[O-])N4C(=O)[C@@H]2[C@@H]34)cc1` [23(c), (1aS,3aR,6bR)-2-(4-Carbamoyl-phenylcarbamoyl)-1-oxo-5-(pyridin-1-yliomethyl)-1a,2,3,3a,4,6b-hexahydro-1H-2,6a-diazacyclobut[cd]indene-6-carboxylate] belongs 0.25 µg/mL.
